Assay results published in PMC8703450, “New Heterocyclic Combretastatin A-4 Analogs: Synthesis and Biological Activity of Styryl-2(3H)-benzothiazolones” (Pharmaceuticals, 2021).

Tests used:
Format in all cases: cell-based, human
[1] = system: MCF-10A cells; test: MTT cytotoxicity assay, MCF-10A control cells; conditions: Homo sapiens, 72 h
Procedure: (§1) All tested compounds were dissolved in DMSO at 25 mM initial concentration and diluted with medium to obtain the working concentrations (0.01 nM–250 µM). Serial drug dilutions were prepared in medium immediately before each experiment. The DMSO working concentration in the medium was […]. For the MTT assay, cells were seeded into 96-well microtitre plates at a density of 1 × 10^4 in 100 µL complete medium per well. They were further incubated for 24 h, followed by treatment with CA-4 analogs up to 72 h. Cell viability was determined using the MTT assay. Ten µL of MTT solution (5 mg/mL) was added to each well and further incubated for 3 h at 37 °C. To dissolve the formazan product, 100 µL/well of 99.5% isopropanol was added. Cell viability was determined by measuring absorbance at 550/630 nm using a DTX880 plate reader (Beckman Coulter, USA). Results, expressed as concentrations that inhibit 20% (IC20), 50% (IC50), and 80% (IC80) of cell growth, were calculated using GraphPad Prism 8.0.1.
(§2) Table S 3.1. Description of eukaryotic cell lines used for MTT assay.
(§3) Panel Cell line Origin Tissue, characteristics Source Culture conditions […]
(§4) (h) lung carcinoma ATCC, CCL-185 U/mL penicillin, 100 […]
(§5) lung, bronchus; insulin, rhEGF, GA-BEAS-2B h epithelial virus ATCC, CRL- 1000, BPE, transformed 9609 transferrin,
(§6) HT-29 h colon, colorectal Radostina adenocarcinoma Alexandrova 3.1 g/L D-Glucose […]

[2] = MTT cytotoxicity assay, MCF-10A control cells; conditions: human, read-out: Cytostatic activity (% viable cells)
Procedure: as §1, §2, §3, §4, §5, §6

[3] = system: EA.hy926 cells; test: Immunofluorescence of mitotic spindles (α-tubulin); conditions: 24 h
Procedure: Indirect immunofluorescence was used to examine the effect of 26Z on α-tubulin in EA.hy 926 cells. A total of 1 × 10^4 cells grown on coverslips were washed with PBS and fixed with 3.7% buffered paraformaldehyde. Single fluorescence cell labeling was performed, as described by Apostolova et al., with a primary chicken antibody against α-tubulin (ab89984, Abcam) for 2 h. Cells were washed three times with PBS for 5 min and incubated for 60 min with a goat anti-chicken secondary antibody labeled with AlexaFluor-488 (ab150173, Abcam). F-actin was detected using AlexaFluor-568 Phalloidin (Invitrogen, MA, USA). Following three washes with PBS and two in water, the slides were mounted in UltraCruz fluorescence mounting medium with DAPI (sc-24941, Santa Cruz Biotechnology, USA). Fluorescence microscopy was performed with a Carl Zeiss Axiovert 200 M Inverted Microscope and Andor Dragonfly 505 Confocal Microscope equipped with an iXon Ultra 888 EMCCD camera (Andor, Oxford Instruments, Belfast, Northern Irelands).

SMILES	IC50 [1] [nM]	viability at 72 h [2] [%]	number of spindle poles (multipolarity) ([3]; EA.hy926, IC50 (130 nM))	number of spindle poles (multipolarity) ([3]; EA.hy926, IC80 (300 nM))
COc1ccc(/C=C\c2cc(OC)c(OC)c(OC)c2)cc1O [CA-4, Combretastatin A-4]	1640 ± 340			
COc1cc(/C=C\c2ccc3c(c2)sc(=O)n3C)cc(OC)c1OC [Compound 26Z, (Z)-3-methyl-6-(3,4,5-trimethoxystyryl)-2(3H)-benzothiazolone]		65	3.9 ± 0.99	8.8 ± 2.3
